From patent publication EP4741395A1, “NOVEL COMPOUND SENSITIVE TO NITROGEN MONOXIDE AND PHARMACEUTICAL COMPOSITION COMPRISING SAME” (Omniamed Co. Ltd, priority 2023, dated 2025)
Entries after “also recorded” stand apart in the source; their conditions may differ.

What was measured:
[1] = tested on: IL-6 (Interleukin-6); assay: Inhibition of inflammatory cytokine secretion in LPS-treated immune cells (IL-6 sandwich ELISA); type: cell-based; conditions: Mus musculus, RAW264.7, Raw 264.7, LPS 500 ng/mL, 24 hours, read-out: IL-6 Reduction Activity (%) (Mean±SD)
Method: Raw 264.7 cell line was seeded in a 48-well plate at a density of 8×10^4 cells/well, and cultured at 37°C in a DMEM medium including 10% FBS, 100 U/mL of penicillin and 100 µg/mL of streptomycin.
The medium was cultured overnight, and then replaced with a fresh medium including 10 µM of the pharmaceutical composition sensitive to nitrogen monoxide including the compound of each of Examples 1 and 11 to 13 and 500 ng/mL of LPS, and the fresh medium was cultured again for another 24 hours.
Lastly, the supernatant was collected, and then the level of IL-6 (Interleukin-6) expression was analyzed using a Sandwich enzyme-linked immunosorbent assay (ELISA). Specifically, a standard solution and 50 µL of the diluted supernatant were introduced to each well of a well plate coated with an antibody specific to IL-6, and after binding IL-6 to the immobilized antibody, the well was washed with a washing buffer, followed by a reaction with HRP as a secondary antibody for 30 minutes at room temperature. The well was washed three times with a washing buffer, then color was developed using TMB (3,3', 5,5'-tetramethyl benzidine) as a substrate, and the reaction was stopped using 1 M sulfuric acid to measure the degree of color development at an absorbance of 450 nm.

[2] = tested on: IFN-γ; assay: IFN-γ reduction activity in Concanavalin A-treated splenocytes (quantitative ELISA); type: cell-based, C57BL/6 mouse; conditions: Mus musculus, Splenocyte, Concanavalin A 5 µg/mL, 72 hours, read-out: IFN-γ Reduction Activity (%) (Mean±SD)
Outline: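 Splenocytes from 8-week-old C57BL/6 mice at 5×10^6 cells/mL in RPMI 1640 with 10% FBS, stimulated with Concanavalin A (5 µg/mL) plus compound added concentration-dependently. Supernatant IFN-γ measured by quantitative ELISA after 72 h.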

[3] = Hematological toxicity evaluation after single oral administration (routine blood test); conditions: single oral dose 200 mg/kg and 800 mg/kg, compared with the normal group
[4] = target: T1, JAK 2 (Homo sapiens, UniProt O60674); assay: JAK Human TK kinase enzymatic radiometric assay (Eurofins), JAK 2; type: biochemical; design: unit not given here; conditions: value close to 100 indicates low JAK activity of the compound
T1 construct: purchased Eurofins Scientific (assay service)
Excerpt: For the compounds of the Examples, JAK activity of each of the compounds was verified using the JAK Human TK Kinase Enzymatic Radiometric Kinase Profiler Assay service provided by Eurofins Scientific.
The activity was verified after inducing a reaction at the JAK 1, 2 and 3 active sites using radioactively labeled ATP.

[5] = Efficacy on DSS induced ulcerative colitis (disease activity index); type: in vivo, mice
Method: In order to establish an ulcerative colitis model, 2.5% DSS powder was mixed with drinking water and provided ad libitum. The DSS powder-containing drinking water was supplied for 5 to 6 days of disease induction period, and after that, normal drinking water was supplied.
The administered compounds of Table 21 were administered orally once daily. Hematochezia, diarrhea and body weight loss were scored according to the criteria shown in the following Table 22, and the scores were summed to calculate a disease activity index (DAI), which is shown in FIG. 4.
Efficacy of Compound (4) on ulcerative colitis was verified in the same manner as in Experimental Example 10-1, except that Compound (4) was used instead of Compound (1), and DSS was administered until day 5, and the drug was administered from day 6.

[6] = tested on: splenocytes; assay: NO scavenging activity in Concanavalin A-treated splenocytes (Griess assay); type: cell-based, C57BL/6 mouse; conditions: Mus musculus, Splenocyte, Concanavalin A 5 µg/mL, 72 hours, read-out: NO Scavenging Activity (%) (Mean±SD)
Outline: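 Splenocytes from 8-week-old C57BL/6 mice at 5×10^6 cells/mL in RPMI 1640/10% FBS, stimulated with Concanavalin A (5 µg/mL) plus […] test composition added at plating. After 72 h culture, remaining NO in supernatant measured by Griess assay.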

[7] = tested on: splenocytes; assay: Inhibitory activity on cell proliferation in splenocytes (CCK-8 analysis); type: cell-based, C57BL/6 mouse; conditions: Mus musculus, Splenocyte, Concanavalin A 5 µg/mL, 72 hours, read-out: Inhibitory Activity on Cell Proliferation (%) (Mean±SD)

T1 sequence (O60674 whole entry): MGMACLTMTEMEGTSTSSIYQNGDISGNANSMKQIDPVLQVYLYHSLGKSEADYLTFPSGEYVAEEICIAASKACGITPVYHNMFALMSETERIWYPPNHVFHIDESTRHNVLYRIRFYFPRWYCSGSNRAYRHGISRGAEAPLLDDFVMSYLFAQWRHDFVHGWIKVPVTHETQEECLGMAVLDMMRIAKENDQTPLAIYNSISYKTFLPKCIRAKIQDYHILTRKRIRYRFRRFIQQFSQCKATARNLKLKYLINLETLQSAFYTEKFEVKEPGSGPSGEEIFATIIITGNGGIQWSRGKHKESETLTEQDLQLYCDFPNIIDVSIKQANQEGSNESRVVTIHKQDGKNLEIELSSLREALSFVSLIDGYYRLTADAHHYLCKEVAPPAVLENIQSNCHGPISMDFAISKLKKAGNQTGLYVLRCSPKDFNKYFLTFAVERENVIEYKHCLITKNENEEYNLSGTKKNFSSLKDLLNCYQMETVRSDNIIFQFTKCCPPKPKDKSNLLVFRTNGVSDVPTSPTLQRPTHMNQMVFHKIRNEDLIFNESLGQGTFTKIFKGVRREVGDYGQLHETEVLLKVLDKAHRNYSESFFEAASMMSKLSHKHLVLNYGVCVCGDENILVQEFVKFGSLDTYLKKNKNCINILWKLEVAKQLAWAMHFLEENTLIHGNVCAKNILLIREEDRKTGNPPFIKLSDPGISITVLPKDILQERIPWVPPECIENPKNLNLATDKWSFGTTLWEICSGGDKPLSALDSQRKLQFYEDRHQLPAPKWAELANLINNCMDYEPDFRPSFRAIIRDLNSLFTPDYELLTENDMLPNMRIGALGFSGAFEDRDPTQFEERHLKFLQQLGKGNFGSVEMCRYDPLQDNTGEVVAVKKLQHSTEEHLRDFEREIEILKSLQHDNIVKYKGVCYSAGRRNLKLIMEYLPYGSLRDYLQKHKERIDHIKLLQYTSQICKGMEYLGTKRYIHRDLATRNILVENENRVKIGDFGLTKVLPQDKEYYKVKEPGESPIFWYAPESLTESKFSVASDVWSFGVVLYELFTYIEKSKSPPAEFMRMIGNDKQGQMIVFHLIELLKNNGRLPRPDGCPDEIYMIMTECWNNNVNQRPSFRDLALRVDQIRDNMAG

## C[C@@H]1CCN(C(=O)CC#N)C[C@@H]1N(C)c1ncnc2c1ccn2C(=O)Nc1ccccc1N [Example 1, N-(2-aminophenyl)-4-(((3R,4R)-1-(2-cyanoacetyl)-4-methylpiperidin-3-yl) (methyl)amino)-7H-pyrrolo[2,3-d]pyrimidine-7-carboxamide]
[1]
  activity at 10 µM: 93.6 ± 0.6%
[2]
  activity at 10 µM: 91.5 ± 1.37%
[3]
  hematological toxicity responses: No hematological toxicity responses were observed
[4]; 0.1 nM
  JAK 2 Activity: 100
[4]; 1 nM
  JAK 2 Activity: 92
[4]; 10 nM
  JAK 2 Activity: 69
[4]; 100 nM
  JAK 2 Activity: 16
[5]; 25 mg/kg oral once daily from day 3, day 7 of the test, p<0.01, FIG. 4
  efficacy on disease activity index (DAI): statistically significant efficacy was observed
[5]; 25 mg/kg oral once daily, FIGS. 4 and 5
  efficacy in alleviating ulcerative colitis compared to tofacitinib: comparable to that of tofacitinib on average; also recorded: comparable or more superior efficacy
[6]
  activity at 10 µM: 98.1 ± 0.09%
[7]
  inhibition at 10 µM: 55 ± 8.48%
